Source: US8350033B2, “4-((3, 5, 6-trimethylpyrazine-2-yl) methoxyl) benzoic acid and its derivatives” (priority 2007, dated 2013)
Values belong to the compound of their own block, whether it stands above or below them.

Tests used:
aggregation of platelet = assay: Experiment of resisting platelet aggregation (ADP-induced, platelet-rich plasma, absorbance at 600 nm); assay type: cell-based, rabbit; settings: for IC50: Oryctolagus cuniculus, rabbit platelet-rich plasma, ADP final concentration of 4 μmol/L, read-out: IC50 (50% inhibitory concentration) on aggregation of platelet
Experimental: Experiment of resisting platelet aggregation with the ligustrazine aromatic acid ether derivatives: Anaesthetizing intravenously a rabbit with 3% pentobarbital sodium, separating arteria carotis communis and taking blood by inserting a pipe, using 3.8% sodium citrate solution (dissolving 3.8 g sodium citrate with distilled water, up to 100 mL, filtering, bottling, sterilizing under 121° C. and high pressure for 15 min) as an anticoagulant (1:9), 1000 r/min, centrifuging for 5 min to prepare platelet-rich plasma (PRP), 3000 r/min, centrifuging for 15 min to prepare platelet-poor plasma (PPP). Cultivating the PRP under 37° C. in a silicified cuvette for 5 min, measuring absorbance (A) at 600 nm, adjusting the absorbance of the PRP to 0.6-0.7 with the PPP, adding 1.7 mL adjusted PRP into another silicified cuvette, adding 200 μL of the test drug, measuring the absorbance at 600 nm before adding […], then adding 100 μL of ADP (final concentration of 4 μmol/L), respectively measuring the absorbance when 2 and 5 min after adding the ADP, calculating aggregation rate (AR) by the following formula: AR=(A before adding the ADP−A after adding the ADP)/A before adding the ADP (100%.). At the same time, calculating aggregation inhibition rate (AIR) of the tested drug to platelet: AIR=[1−(aggregation percentage in administrated tube/aggregation percentage in contrast tube)]×100. Calculating 50% inhibitory concentration (IC50) of the tested drug, referring to table 2.

Compound: COc1cc(C(=O)O)cc(OC)c1OCc1nc(C)c(C)nc1C [Example 2, 4-((3,5,6-trimethylpyrazine-2-yl)methoxyl)-3,5-dimethoxybenzoic acid]
melting point: > 218 °C (dec.)

Compound: COc1cc(C(=O)O)ccc1OCc1nc(C)c(C)nc1C [Example 5, 4-((3,5,6-trimethylpyrazine-2-yl)methoxyl)-3-methoxybenzoic acid]
melting point: 183 to 185 °C

Compound: Cc1nc(C)c(COc2ccc(C(=O)O)cc2)nc1C [MC1, 4-((3,5,6-trimethylpyrazine-2-yl)methoxyl)benzoic acid]
melting point: 179 to 181 °C
IC50 (aggregation of platelet): 1.36 mM
antiplatelet aggregative activity compared with Ozagrel positive drug (in words) (aggregation of platelet; rabbit PRP, ADP): stronger than Ozagrel

Now from value to compound, other results behind:

melting point: 156 to 158 °C
IC50 (aggregation of platelet): 0.28 mM
Compound: COc1cc(/C=C/C(=O)O)ccc1OCc1nc(C)c(C)nc1C [MC2, (E)-3-(4-((3,5,6-Trimethylpyrazin-2-yl)methoxy)-3-methoxyphenyl)acrylic acid]
antiplatelet aggregative activity compared with Ozagrel positive drug (in words) (aggregation of platelet; rabbit PRP, ADP): stronger than Ozagrel
antiplatelet aggregative activity relative to Ozagrel (aggregation of platelet; ratio to Ozagrel positive drug, rabbit PRP, ADP): 5.7 times

melting point: 190 to 192 °C
IC50 (aggregation of platelet): 1 mM
Compound: COc1ccc(C(=O)O)cc1OCc1nc(C)c(C)nc1C [MC5, 3-((3,5,6-trimethylpyrazine-2-yl)methoxyl)-4-methoxybenzoic acid]
antiplatelet aggregative activity compared with Ozagrel positive drug (in words) (aggregation of platelet; rabbit PRP, ADP): stronger than Ozagrel

IC50 (aggregation of platelet): 1.6 mM
Compound: O=C(O)/C=C/c1ccc(Cn2ccnc2)cc1 [Ozagrel, reference compound]
